# Results as given in the supplement of paper PMC4862054.
# How the values were obtained:
# Conditions in all cases: incubation time: 72 h
# Hs578T [1] = experiment: normalised response (% of control), CellTiter-Glo; higher = more viable cells (100 = DMSO, 0 = benzethonium chloride kill control)
# Description: (§1)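 DSRT, 72 h incubation, CellTox Green / CellTiter-Glo readout. Signal is normalised to DMSO and benzethonium chloride controls. Value is the normalised response at dose 3.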
# SK-BR-3 = experiment: as above
# Description: as §1
# HDQ-P1 [2] = experiment: as above
# Description: as §1
# CAL-120 [3] = experiment: as above
# Description: as §1
# MDA-MB-231 [4] = experiment: as above
# Description: as §1
# MDA-MB-468 [5] = experiment: as above
# Description: as §1
# MDA-MB-436 [6] = experiment: as above
# Description: as §1
# MFM-223 [7] = experiment: as above
# Description: as §1
# CAL-51 [8] = experiment: as above
# Description: as §1
# MCF-10A [9] = experiment: as above
# Description: as §1
# CAL-148 [10] = experiment: as above
# Description: as §1
# BT-549 [11] = experiment: as above
# Description: as §1
# HCC1599 [12] = experiment: as above
# Description: as §1
# DU-4475 [13] = experiment: as above
# Description: as §1
# HCC1143 [14] = experiment: as above
# Description: as §1
# HCC1937 [15] = experiment: as above
# Description: as §1
# MDA-MB-453 [16] = experiment: as above
# Description: as §1
# CAL-85-1 [17] = experiment: as above
# Description: as §1
# BT-474 [18] = experiment: as above
# Description: as §1
# HDQ-P1 [19] = experiment: normalised response (% of control), CellTox Green; higher = less cell death (100 = DMSO, 0 = benzethonium chloride kill control)
# How it was run: (§2)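 For each plate, 0.1 % DMSO was set to 100 and a positive kill control to 0. Breast cancer cell lines (20 µl suspension) were seeded into 384-well plates already holding compound at 5 concentrations in 10-fold steps over a 10,000-fold range chosen per compound, and incubated for 72 h. CellTox Green fluorescence at 485/520 nm was read before CellTiter-Glo luminescence, which followed 10 min at room temperature. Each value is the normalised signal at one concentration.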
# CAL-120 [20] = experiment: as above
# How it was run: as §2
# MDA-MB-231 [21] = experiment: as above
# How it was run: as §2
# MDA-MB-468 [22] = experiment: as above
# How it was run: as §2
# MDA-MB-436 [23] = experiment: as above
# How it was run: as §2
# MFM-223 [24] = experiment: as above
# How it was run: as §2
# CAL-51 [25] = experiment: as above
# How it was run: as §2
# MCF-10A [26] = experiment: as above
# How it was run: as §2
# CAL-148 [27] = experiment: as above
# How it was run: as §2
# BT-549 [28] = experiment: as above
# How it was run: as §2
# HCC1599 [29] = experiment: as above
# How it was run: as §2
# DU-4475 [30] = experiment: as above
# How it was run: as §2
# HCC1143 [31] = experiment: as above
# How it was run: as §2
# MDA-MB-453 [32] = experiment: as above
# How it was run: as §2
# CAL-85-1 [33] = experiment: as above
# How it was run: as §2
# BT-474 [34] = experiment: as above
# How it was run: as §2
# Hs578T [35] = experiment: as above
# How it was run: as §2
# HCC1937 [36] = experiment: as above
# How it was run: as §2
Compound,normalised response (Hs578T [1]) [%],normalised response (SK-BR-3) [%],normalised response (HDQ-P1 [2]) [%],normalised response (CAL-120 [3]) [%],normalised response (MDA-MB-231 [4]) [%],normalised response (MDA-MB-468 [5]) [%],normalised response (MDA-MB-436 [6]) [%],normalised response (MFM-223 [7]) [%],normalised response (CAL-51 [8]) [%],normalised response (MCF-10A [9]) [%],normalised response (CAL-148 [10]) [%],normalised response (BT-549 [11]) [%],normalised response (HCC1599 [12]) [%],normalised response (DU-4475 [13]) [%],normalised response (HCC1143 [14]) [%],normalised response (HCC1937 [15]) [%],normalised response (MDA-MB-453 [16]) [%],normalised response (CAL-85-1 [17]) [%],normalised response (BT-474 [18]) [%],normalised response (HDQ-P1 [19]) [%],normalised response (CAL-120 [20]) [%],normalised response (MDA-MB-231 [21]) [%],normalised response (MDA-MB-468 [22]) [%],normalised response (MDA-MB-436 [23]) [%],normalised response (MFM-223 [24]) [%],normalised response (CAL-51 [25]) [%],normalised response (MCF-10A [26]) [%],normalised response (CAL-148 [27]) [%],normalised response (BT-549 [28]) [%],normalised response (HCC1599 [29]) [%],normalised response (DU-4475 [30]) [%],normalised response (HCC1143 [31]) [%],normalised response (MDA-MB-453 [32]) [%],normalised response (CAL-85-1 [33]) [%],normalised response (BT-474 [34]) [%],normalised response (Hs578T [35]) [%],normalised response (HCC1937 [36]) [%]
CCc1cncnc1N1CCN(Cc2nc3ccc(C(F)(F)F)cc3[nH]2)CC1 (100 nM),109,107,97.7,109,110,106,108,110,88.2,108,116,92.9,99.9,106,107,98.6,106,95.8,105,96,96,105,108,99.8,106,86.3,86.4,108,83.3,99.1,101,118,87.5,99.3,97.9,,
C[C@H]1C[C@@H]2[C@H]([C@@H](O)C[C@@]3(C)[C@H]2CC[C@]3(O)C(=O)CO)[C@@]2(C)C=CC(=O)C=C12 [Methylprednisolone] (100 nM),107,104,90.5,76.9,156,111,104,109,86.4,106,109,101,97.9,108,108,98.3,99.9,115,152,,103,140,169,89.9,78.2,111,101,107,103,110,102,90.4,76.2,102,98.9,89,115
O=C(O)C(=O)O.[NH-][C@@H]1CCCC[C@H]1[NH-].[Pt+2] [Oxaliplatin] (100 nM),97.9,84.8,104,103,97.2,89.3,103,94.3,77,97.5,85.6,108,93,92.5,99,93.1,87.5,96.9,99,110,100,89.6,110,,76.6,84.7,70,61.1,110,94.2,96.8,89.3,97.2,93.8,93,,79.4
CC[C@H](C)C(=O)O[C@H]1C[C@H](O)C=C2C=C[C@H](C)[C@H](CC[C@@H](O)C[C@@H](O)CC(=O)O)[C@H]21 [Pravastatin] (100 nM),93.2,93.6,98,101,97.8,97.7,13.5,88.8,63.4,97.4,86.3,101,88.7,95.7,101,93.7,85.9,99,99.2,100,97.2,102,107,-74.8,98.2,73.3,99,88.8,103,96.2,101,79.9,98.4,97.9,99.2,,95.9
COc1cc([C@@H]2c3cc4c(cc3[C@@H](O[C@@H]3O[C@@H]5CO[C@@H](c6cccs6)O[C@H]5[C@H](O)[C@H]3O)[C@H]3COC(=O)[C@H]23)OCO4)cc(OC)c1O [Teniposide] (100 nM),90,58.5,96.4,94.7,94.3,79.3,62.6,108,78.5,88.2,74.5,68,66.7,69.2,83.2,91.9,118,91.6,87.8,102,96,103,54.9,95.1,99.3,74.2,83.6,36.3,90.5,91.3,93.6,111,107,89.4,99.7,,
COc1cc2nccc(Oc3ccc(NC(=O)Nc4cc(C)on4)c(Cl)c3)c2cc1OC [Tivozanib] (100 nM),93.7,83.3,104,94.2,96.2,93.6,91.2,86.1,99.6,94.5,88.5,106,102,98.1,102,95.1,87.7,99.5,93,94.8,96.9,94.9,110,,103,108,96.3,102,109,104,96.9,89,97.2,98.6,96,,117
CC1=C(/C=C/C(C)=C/C=C/C(C)=C/C(=O)O)C(C)(C)CCC1 [Tretinoin] (100 nM),98.5,79.8,100,105,102,92,100,93.7,87.7,88.7,91.9,102,103,98.3,97.4,95.8,108,97.5,92.7,108,101,117,159,106,103,102,105,95.3,115,99.1,108,96.3,109,102,103,,92.8
COc1cc2c(NC3CCN(C(C)C)CC3)nc(C3CCCCC3)nc2cc1OCCCN1CCCC1 [UNC0638] (100 nM),97.4,80.1,97,101,92.2,83.8,102,88.6,97.3,88,88,101,80.8,86.5,100,92.2,92.7,98.8,94.1,102,100,102,119,94.6,102,99.5,98.3,96.8,63.7,101,97.4,107,99.2,111,101,,
Oc1ncc(N(CCCl)CCCl)c(O)n1 [Uracil mustard] (100 nM),102,101,104,103,100,94.6,98.9,104,110,101,100,105,95.5,99.1,100,98,95.5,96.7,106,,106,118,154,109,102,109,114,103,111,102,108,113,110,114,104,111,88
